Measurements published in patent publication US20240216352A1 (priority 2022, published 2024).
“And” between values parts separate entries of the source, which are not always exact repeats. Equal entries are not always repeated.

What was measured:
[1] = test system: participants with IPF; assay: Phase 2 study, IPF cohort: efficacy (ppFVC, FVC); format: in vivo, human; details: for Efficacy versus PBO (ppFVC, FVC): Week 26, overall population with and without SoC; for Relative reduction in rate of decline in ppFVC vs PBO: Week 26, overall; for Slope difference in rate of decline in FVC, 60 mg - PBO: adjusted for age, gender, height
Experimental: (§1) A total of 278 participants with IPF were randomized and 276 participants were treated as of the final analyses data cut-off (4 Aug. 2022). Male and female participants […] with IPF and percent predicted forced vital capacity (ppFVC) […] and percent predicted DLCO (ppDLCO)≥25%; diagnosed within 7 years of screening; having a centrally-read chest HRCT obtained at screening that was consistent with UIP or probable UIP, or having a lung biopsy consistent with UIP, were eligible to enter the study. The mean baseline ppFVC for all subjects was 76.5%. In the primary IPF cohort, participants were randomized (1:1:1) to receive 30 mg or 60 mg Compound A or placebo (PBO) twice daily for 26 weeks. Participants were stratified by standard of care (SoC) IPF therapy (pirfenidone versus nintedanib versus none) and region (Japan versus Rest of World) at randomization.
The primary objective of the study was to determine the rate of change in ppFVC from baseline to Week 26. The primary objective was evaluated with a two estimand framework to handle the intercurrent event of dose reduction to 10 mg BID or matching PBO when pre-specified low BP criteria is met. The primary estimand is adopted to estimate treatment effect when dose reduction is implemented. The supplementary estimand is adopted to estimate the effect of treatment without dose reduction.
Analysis Strategy: The primary estimand was to evaluate the efficacy of Compound A at 30 mg or 60 mg twice daily, compared to PBO in IPF participants who met the enrollment criteria, with or without use of SoC. The rate of decline in ppFVC (%) from baseline to Week 26 was compared using the difference between each dose and PBO as a population level summary regardless of dose reduction or treatment discontinuation for any reason (treatment policy strategy).
Analysis Strategy: The supplementary estimand for the primary objective is to evaluate the efficacy of Compound A at 30 mg or 60 mg twice daily without dose reduction, compared to the PBO in IPF subjects who met the enrollment criteria, with or without use of SoC. The rate of decline in ppFVC (%) from baseline to Week 26 has been compared using the difference between each dose and PBO as a population level summary regardless of treatment discontinuation for any reason (treatment policy strategy). In the event of dose reduction, data collected after dose reduction will not be considered relevant to the treatment effect of interest and therefore, will be treated as missing (while-on-treatment strategy).

[2] = test system: participants with IPF; assay: Phase 2 study, IPF cohort: safety and blood pressure monitoring; format: in vivo, human; details: for Nadir post-dose mean reduction from baseline in sitting SBP: Day 1, 2 hours post-dose
Experimental: as §1
Patient experiences any of the following, confirmed by retest within 15 minutes: • Seated systolic blood pressure <85 mmHg • Seated diastolic blood pressure <55 mmHg • Orthostatic hypotension
Patient experiences symptoms that, in the investigator's opinion, could be associated with a reduction in blood pressure and also experiences at least one of the following, confirmed by retest within 15 minutes: • Seated systolic blood pressure <100 mmHg or seated diastolic blood pressure <60 mmHg • Decrease of seated systolic blood pressure of ≥20 mmHg from the previous visit or decrease of seated diastolic blood pressure of ≥10 mmHg from the previous visit • Orthostatic hypotension • Orthostatic tachycardia

[3] = 60 mg BID, baseline to Week 26, No SoC, supplementary estimand
[4] = 60 mg BID, baseline to Week 26, overall, primary estimand
[5] = 60 mg BID, baseline to Week 26, overall, supplementary estimand
[6] = Active Total (30 mg and 60 mg groups)

Compound: CCCN(C)C(=O)OCc1c(-c2ccc(O[C@H]3CCC[C@H](C(=O)O)C3)c(C)n2)nnn1C [Compound A, (1S,3S)-3-((2-methyl-6-(1-methyl-5-(((methyl(propyl)carbamoyl)-oxy)methyl)-1H-1,2,3-triazol-4-yl)pyridin-3-yl)oxy)cyclohexane-1-carboxylic acid]
- Acute exacerbations of lung fibrosis, patients ([1]; 30 mg BID): 3 n
- Efficacy versus PBO (ppFVC, FVC) ([1]; 30 mg BID): did not demonstrate efficacy compared to PBO
- Rate of change in ppFVC over 26 weeks ([1]; 30 mg BID, treatment policy strategy): −2.8%
- Rate of change in ppFVC over 26 weeks ([1]; 30 mg BID, while-on-treatment strategy): −3.2%
- Acute exacerbations of lung fibrosis, patients ([1]; 60 mg BID): 1 n
- Relative treatment benefit in ppFVC decline vs PBO ([1]; 60 mg BID, Week 26, No SoC, primary estimand): 113%
- Relative treatment benefit in ppFVC decline vs PBO ([1]; 60 mg BID, Week 26, No SoC, supplementary estimand): 123%
- Relative treatment benefit in ppFVC decline vs PBO ([1]; 60 mg BID, Week 26, on background SoC, primary estimand): 39%
- Relative treatment benefit in ppFVC decline vs PBO ([1]; 60 mg BID, Week 26, on background SoC, supplementary estimand): 44%
- Efficacy versus PBO (ppFVC, FVC) ([1]; 60 mg BID): demonstrated favorable treatment responses versus PBO
- Relative reduction in rate of decline in ppFVC vs PBO ([1]; 60 mg BID, primary estimand (treatment policy)): 54%
- Relative reduction in rate of decline in ppFVC vs PBO ([1]; 60 mg BID, supplementary estimand (while-on-treatment)): 62%
- Slope difference in rate of decline in ppFVC, 60 mg - PBO ([1]; 60 mg BID, baseline to Week 26, No SoC, primary estimand): 2.01±1.7% and 2.01%
- Estimated rate of decline in ppFVC, slope [1, 3]: 0.471
- Slope difference in rate of decline in ppFVC, 60 mg - PBO [1, 3]: 2.55±1.73% and 2.55%
- Estimated rate of decline in ppFVC, slope ([1]; 60 mg BID, baseline to Week 26, SoC, supplementary estimand): −1.772
- Slope difference in rate of decline in ppFVC, 60 mg - PBO ([1]; 60 mg BID, baseline to Week 26, on background SoC, primary estimand): 1.22±0.87% and 1.22%
- Slope difference in rate of decline in ppFVC, 60 mg - PBO ([1]; 60 mg BID, baseline to Week 26, on background SoC, supplementary estimand): 1.41±0.89% and 1.41%
- Slope of decline in FVC, 60 mg arm [1, 4]: -54.3 ± 20.76 mL
- Slope difference in rate of decline in ppFVC, 60 mg - PBO ([1]; 60 mg BID, baseline to Week 26, overall, primary estimand (treatment policy)): 1.45±0.81% and 1.4% and 1.45%
- Slope difference in rate of decline in FVC, 60 mg - PBO [1, 4]: 46.9 ± 29.14 mL and 46.9 mL
- Estimated rate of decline in ppFVC, slope [1, 5]: −1.1% and −1.08%
- Slope of decline in FVC, 60 mg arm [1, 5]: -47.2 ± 20.92 mL
- Slope difference in rate of decline in ppFVC, 60 mg - PBO ([1]; 60 mg BID, baseline to Week 26, overall, supplementary estimand (while-on-treatment)): 1.77±0.82% and 1.8% and 1.77%
- Slope difference in rate of decline in FVC, 60 mg - PBO [1, 5]: 61.4 mL
- Posterior probability of a positive treatment difference vs placebo (Bayesian analysis) ([1]; 60 mg BID, under both estimand strategies): > 95%
- Adjusted mean treatment difference in absolute change in FVC vs placebo ([1]; 60 mg BID, week 26): 45.5 mL
- Dose reductions to 10 mg BID due to protocol-defined low BP criteria ([2]; 30 mg BID): 7 (7.7%) n (%) and 7 (7.7) n (%)
- Treatment discontinuations due to TEAEs ([2]; 30 mg BID): 9.9%
- Asymptomatic low blood pressure ([2]; 30 mg BID (N = 91)): 22 (24.2%) n (%) and 22 (24.2) n (%)
- Orthostatic hypotension observed in asymptomatic low BP ([2]; 30 mg BID (N = 91)): 21 (23.1%) n (%) and 21 (23.1) n (%)
- Orthostatic hypotension observed in symptomatic low BP ([2]; 30 mg BID (N = 91)): 9 (9.9%) n (%) and 9 (9.9) n (%)
- Orthostatic intolerance ([2]; 30 mg BID (N = 91)): 10 (11.0%) n (%) and 10 (11.0) n (%)
- Subjects discontinuing study treatment due to a TEAE ([2]; 30 mg BID (N = 91)): 9 (9.9%) n (%) and 9 (9.9) n (%)
- Subjects who died ([2]; 30 mg BID (N = 91)): 4 (4.4%) n (%) and 4 (4.4) n (%)
- Subjects who died due to a TEAE ([2]; 30 mg BID (N = 91)): 3 (3.3%) n (%) and 3 (3.3) n (%)
- Subjects with at least one AESI ([2]; 30 mg BID (N = 91)): 18 (19.8%) n (%) and 18 (19.0) n (%)
- Subjects with at least one TEAE ([2]; 30 mg BID (N = 91)): 69 (75.8%) n (%) and 69 (75.8) n (%)
- Subjects with at least one TEAE related to the study treatment ([2]; 30 mg BID (N = 91)): 23 (25.3%) n (%) and 23 (25.3) n (%)
- Subjects with at least one TESAE ([2]; 30 mg BID (N = 91)): 10 (11.0%) n (%) and 10 (11.0) n (%)
- Symptomatic low blood pressure ([2]; 30 mg BID (N = 91)): 11 (12.1%) n (%) and 11 (12.1) n (%)
- Nadir post-dose mean reduction from baseline in sitting SBP ([2]; 30 mg): −10.5 mmHg
- Dose reductions to 10 mg BID due to protocol-defined low BP criteria ([2]; 60 mg BID): 6 (6.5%) n (%) and 6 (6.5) n (%)
- Treatment discontinuations due to TEAEs ([2]; 60 mg BID): 6.5%
- Asymptomatic low blood pressure ([2]; 60 mg BID (N = 93)): 17 (18.3%) n (%) and 17 (18.3) n (%)
- Orthostatic hypotension observed in asymptomatic low BP ([2]; 60 mg BID (N = 93)): 14 (15.1%) n (%) and 14 (15.1) n (%)
- Orthostatic hypotension observed in symptomatic low BP ([2]; 60 mg BID (N = 93)): 5 (5.4%) n (%) and 5 (5.4) n (%)
- Orthostatic intolerance ([2]; 60 mg BID (N = 93)): 2 (2.2%) n (%) and 2 (2.2) n (%)
- Subjects discontinuing study treatment due to a TEAE ([2]; 60 mg BID (N = 93)): 6 (6.5%) n (%) and 6 (6.5) n (%)
- Subjects who died ([2]; 60 mg BID (N = 93)): 5 (5.4%) n (%) and 5 (5.4) n (%)
- Subjects who died due to a TEAE ([2]; 60 mg BID (N = 93)): 4 (4.3%) n (%) and 4 (4.3) n (%)
- Subjects with at least one AESI ([2]; 60 mg BID (N = 93)): 9 (9.7%) n (%) and 9 (9.7) n (%)
- Subjects with at least one TEAE ([2]; 60 mg BID (N = 93)): 69 (74.2%) n (%) and 69 (74.2) n (%)
- Subjects with at least one TEAE related to the study treatment ([2]; 60 mg BID (N = 93)): 25 (26.9%) n (%) and 25 (26.9) n (%)
- Subjects with at least one TESAE ([2]; 60 mg BID (N = 93)): 10 (10.8%) n (%) and 10 (10.8) n (%)
- Symptomatic low blood pressure ([2]; 60 mg BID (N = 93)): 6 (6.5%) n (%) and 6 (6.5) n (%)
- Risk of orthostatic and low BP events compared to PBO ([2]; 60 mg twice daily (BID)): not associated with any increased risk of orthostatic intolerance, orthostatic hypotension, orthostatic tachycardia, or symptomatic or asymptomatic low BP
- Nadir post-dose mean reduction from baseline in sitting SBP ([2]; 60 mg): −14.1 mmHg
- Subjects discontinuing study treatment due to a TEAE [2, 6]: 15 (8.2) n (%)
- Subjects who died [2, 6]: 9 (4.9) n (%)
- Subjects who died due to a TEAE [2, 6]: 7 (3.8) n (%)
- Subjects with at least one AESI [2, 6]: 27 (14.7) n (%)
- Subjects with at least one TEAE [2, 6]: 138 (75.0) n (%)
- Subjects with at least one TEAE related to the study treatment [2, 6]: 48 (26.1) n (%)
- Subjects with at least one TESAE [2, 6]: 20 (10.9) n (%)
